Source: patent US10513495B2, “Polymorph of pimavanserin tartrate and preparation method thereof and use of same” (SHANGHAI BEGREAT PHARMATECH, priority 2016, dated 2019)
Where a name gives a salt, the structure may show the parent alone.

Experiment: Powder fluidity test (angle of repose)
Type: physicochemical
Conditions: for powder flowability (in words): Form III compared to existing Pimavanserin tartrate Form A, B and C; for angle of repose: powder through two funnels onto 7 cm diameter petri dish, α=arc tg(H/R), average of three measurements, ≤30 degrees good, >40 degrees very poor flowability, tartrate
Experimental: Powder fluidity test: the tray is a 7 cm diameter petri dish. The two glass funnels are overlapped on the iron frame. The distance between the lower funnel outlet and the Petri dish is 3.5-6.0 cm. Pimavanserin tartrate salt was added slowly from the upper funnel, and the sample was gradually accumulated on the petri dish through the buffer of the two funnels to form a cone until the highest cone was obtained. Determine the height H of the cone, measure each sample three times, take the average value, and calculate the angle of repose according to the following formula: α=arc tg(H/R) where α is the angle of repose and R is the radius of the dish
When the angle of repose of the powder is less than or equal to 30 degrees, it means the flowability of this powder is good. While in case, 40 degrees or less of the powder angle of repose, this powder can satisfy the demand for fluidity in the production process. When the angle of repose of the powder is more than 40 degrees, it means the very poor flowability of the drug powder which may cause the troubles above mentioned during the drug manufacturing process.

| SMILES | powder flowability (in words) | angle of repose |
| --- | --- | --- |
| CC(C)COc1ccc(CNC(=O)N(Cc2ccc(F)cc2)C2CCN(C)CC2)cc1 [Form A, N-(4-fluorobenzyl)-N-(1-methylpiperidin-4-yl)-N′-[4-(2-methylpropoxy)phenylmethyl]urea tartrate] | poor | 45° |
| CC(C)COc1ccc(CNC(=O)N(Cc2ccc(F)cc2)C2CCN(C)CC2)cc1 [Form C, N-(4-fluorobenzyl)-N-(1-methylpiperidin-4-yl)-N′-[4-(2-methylpropoxy)phenylmethyl]urea tartrate] | poor | 41° |
| CC(C)COc1ccc(CNC(=O)N(Cc2ccc(F)cc2)C2CCN(C)CC2)cc1 [Form B, N-(4-fluorobenzyl)-N-(1-methylpiperidin-4-yl)-N′-[4-(2-methylpropoxy)phenylmethyl]urea tartrate] | poor | 43° |
| CC(C)COc1ccc(CNC(=O)N(Cc2ccc(F)cc2)C2CCN(C)CC2)cc1 [Form III, N-(4-fluorobenzyl)-N-(1-methylpiperidin-4-yl)-N′-[4-(2-methylpropoxy)phenylmethyl]urea tartrate] | significantly improves the powder flowability | 32° |
